Measurements from patent US8563542B2 (Cyclacel Limited, priority 2007, dated 2013).
Read-outs that look alike come from different tables or passages of the source.

Tests used:
PLK1 = PLK1 (Homo sapiens, UniProt P53350); assay: PLK1 protein kinase assay (CDC25C phosphorylation, [γ-32P]-ATP); type: biochemical; conditions: read-out: PLK1 IC50
AA = target: T1, AA (Homo sapiens, UniProt O14965); assay: AA IC50 (Table 1; no method given); type: biochemical
T1 sequence (O14965 1-403): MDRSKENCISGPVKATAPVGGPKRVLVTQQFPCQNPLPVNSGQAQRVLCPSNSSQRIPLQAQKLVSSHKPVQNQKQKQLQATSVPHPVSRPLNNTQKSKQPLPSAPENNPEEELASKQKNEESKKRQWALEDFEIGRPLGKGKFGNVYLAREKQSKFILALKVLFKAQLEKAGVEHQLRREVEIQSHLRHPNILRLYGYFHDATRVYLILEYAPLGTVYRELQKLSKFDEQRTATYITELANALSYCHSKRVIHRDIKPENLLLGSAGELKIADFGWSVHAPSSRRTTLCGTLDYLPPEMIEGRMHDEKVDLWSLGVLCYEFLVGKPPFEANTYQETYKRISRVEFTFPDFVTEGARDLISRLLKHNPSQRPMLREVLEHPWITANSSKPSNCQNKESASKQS

[1] = Table 2, PLK1 IC50, class symbols
[2] = Table 2, AurA IC50, class symbols, read-out: AurA IC50

Chain of PLK1 (P53350 whole entry): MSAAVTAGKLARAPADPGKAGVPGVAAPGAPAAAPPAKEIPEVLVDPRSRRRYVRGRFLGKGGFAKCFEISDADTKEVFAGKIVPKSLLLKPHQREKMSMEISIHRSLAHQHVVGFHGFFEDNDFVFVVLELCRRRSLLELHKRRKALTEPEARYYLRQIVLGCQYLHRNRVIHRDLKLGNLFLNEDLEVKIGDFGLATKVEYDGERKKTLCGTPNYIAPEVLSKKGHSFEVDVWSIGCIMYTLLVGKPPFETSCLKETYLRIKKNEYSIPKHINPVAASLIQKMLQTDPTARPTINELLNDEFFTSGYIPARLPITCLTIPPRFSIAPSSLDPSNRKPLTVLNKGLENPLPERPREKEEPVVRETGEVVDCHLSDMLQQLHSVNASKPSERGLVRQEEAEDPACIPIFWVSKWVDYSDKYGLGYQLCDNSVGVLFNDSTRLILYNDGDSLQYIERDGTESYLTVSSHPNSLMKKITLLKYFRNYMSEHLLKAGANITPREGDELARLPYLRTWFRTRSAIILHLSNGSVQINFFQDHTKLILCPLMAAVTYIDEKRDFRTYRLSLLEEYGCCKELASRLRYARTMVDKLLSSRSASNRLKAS

IC50 (AA; [2])	SMILES	also measured
–	COc1cc(C(=O)O)ccc1Nc1ncc2c(n1)N(C1CCCC1)CCC(=O)N2C [compound 1, 4-(9-Cyclopentyl-5-methyl-6-oxo-6,7,8,9-tetrahydro-5H-pyrimido[4,5-b][1,4]diazepin-2-ylamino)-3-methoxy-benzoic acid]	IC50 (PLK1; Table 1): < 1000 nM; IC50 (AA; Table 1, read-out: AA IC50): 1000 to 10000 nM
–	CC1CC(=O)Nc2cnc(Nc3ccc(C(=O)O)cc3)nc2N1C1CCCC1 (stereo not shown) [compound 7]	IC50 (PLK1; Table 1): < 1000 nM; IC50 (AA; Table 1, read-out: AA IC50): 1000 to 10000 nM
–	CC1CC(=O)N(C)c2cnc(Nc3ccc(C(=O)O)cc3)nc2N1C1CCCC1 (stereo not shown) [compound 8, 4-(9-Cyclopentyl-5,8-dimethyl-6-oxo-6,7,8,9-tetrahydro-5H-pyrimido[4,5-b][1,4]diazepin-2-ylamino)-benzoic acid]	IC50 (PLK1; Table 1): < 1000 nM; IC50 (AA; Table 1, read-out: AA IC50): < 100 nM
–	CN1C(=O)CCN(c2ccccc2)c2nc(Nc3ccc(C(=O)O)cc3)ncc21 [compound 15, 4-(5-Methyl-6-oxo-9-phenyl-6,7,8,9-tetrahydro-5H-pyrimido[4,5-b][1,4]diazepin-2-ylamino)-benzoic acid]	IC50 (PLK1; Table 1): < 10000 nM; IC50 (AA; Table 1, read-out: AA IC50): 100 to 1000 nM
–	CC1CN(C2CCCC2)c2nc(Nc3ccc(C(=O)NC4CCN(C)CC4)cc3)ncc2NC1=O (stereo not shown) [compound 18, 4-(9-Cyclopentyl-7-methyl-6-oxo-6,7,8,9-tetrahydro-5H-pyrimido[4,5-b][1,4]diazepin-2-ylamino)-N-(1-methyl-piperidin-4-yl)-benzamide]	IC50 (PLK1; Table 1): < 10000 nM; IC50 (AA; Table 1, read-out: AA IC50): 1000 to 10000 nM
–	CC1CC(=O)N(C)c2cnc(Nc3ccc(C(=O)NC4CCN(C)CC4)cc3)nc2N1C1CCCC1 (stereo not shown) [compound 37, 4-(9-Cyclopentyl-5,8-dimethyl-6-oxo-6,7,8,9-tetrahydro-5H-pyrimido[4,5-b][1,4]diazepin-2-ylamino)-N-(1-methyl-piperidin-4-yl)-benzamide]	IC50 (PLK1; Table 1): < 1000 nM; IC50 (AA; Table 1, read-out: AA IC50): 100 to 1000 nM
< 100 nM	CCC1CN(C2CCCC2)c2nc(Nc3ccc(C(=O)O)cc3)ncc2N(C)C1=O (stereo not shown) [compound 41, 4-(9-Cyclopentyl-7-ethyl-5-methyl-6-oxo-6,7,8,9-tetrahydro-5H-pyrimido[4,5-b][1,4]diazepin-2-ylamino)-benzoic acid]	IC50 (PLK1; [1]): < 1000 nM
< 1000 nM	COc1cc(C(=O)NC2CCN(C)CC2)ccc1Nc1ncc2c(n1)N(C(C)(C)C)CCC(=O)N2C [compound 42, 4-(9-tert-Butyl-5-methyl-6-oxo-6,7,8,9-tetrahydro-5H-pyrimido[4,5-b][1,4]diazepin-2-ylamino)-3-methoxy-N-(1-methyl-piperidin-4-yl)-benzamide]	IC50 (PLK1; [1]): < 10000 nM
< 100 nM	CN1C(=O)CCN(C2CCCC2)c2nc(Nc3ccc4c(c3)CS(=O)(=O)C4)ncc21 [compound 46, 9-Cyclopentyl-2-(2,2-dioxo-2,3-dihydro-1H-2lambda*6*-benzo[c]thiophen-5-ylamino)-5-methyl-5,7,8,9-tetrahydro-pyrimido[4,5-b][1,4]diazepin-6-one]	IC50 (PLK1; [1]): < 10000 nM
< 100 nM	CN1C(=O)CCN(C2CCCC2)c2nc(Nc3ccc(S(=O)(=O)N4CCOCC4)cc3)ncc21 [compound 47, 9-Cyclopentyl-5-methyl-2-[4-(morpholine-4-sulfonyl)-phenylamino]-5,7,8,9-tetrahydro-pyrimido[4,5-b][1,4]diazepin-6-one]	IC50 (PLK1; [1]): < 10000 nM
< 10000 nM	COc1cccc(N2CCC(=O)N(C)c3cnc(Nc4ccc(C(=O)O)cc4)nc32)c1 [compound 49, 4-[9-(3-Methoxy-phenyl)-5-methyl-6-oxo-6,7,8,9-tetrahydro-5H-pyrimido[4,5-b][1,4]diazepin-2-ylamino]-benzoic acid]	IC50 (PLK1; [1]): < 10000 nM
< 100 nM	COc1ccc(N2CCC(=O)N(C)c3cnc(Nc4ccc(NC(=O)C5CC5)c(C)c4)nc32)cc1 [compound 327, Cyclopropanecarboxylic acid {4-[9-(4-methoxy-phenyl)-5-methyl-6-oxo-6,7,8,9-tetrahydro-5H-pyrimido[4,5-b][1,4]diazepin-2-ylamino]-2-methyl-phenyl}-amide]	–
< 10000 nM	CCN1C(=O)CCN(c2ccc(C)cc2)c2nc(Nc3ccc(NC(=O)C4CC4)c(C)c3)ncc21 [compound 328, Cyclopropanecarboxylic acid [4-(5-ethyl-6-oxo-9-p-tolyl-6,7,8,9-tetrahydro-5H-pyrimido[4,5-b][1,4]diazepin-2-ylamino)-2-methyl-phenyl]-amide]	–
< 1000 nM	Cc1cc(Nc2ncc3c(n2)N(c2c(F)cccc2F)CCC(=O)N3C)ccc1NC(=O)C1CC1 [compound 329, Cyclopropanecarboxylic acid {4-[9-(2,6-difluoro-phenyl)-5-methyl-6-oxo-6,7,8,9-tetrahydro-5H-pyrimido[4,5-b][1,4]diazepin-2-ylamino]-2-methyl-phenyl}amide]	–
< 10000 nM	CCN1C(=O)CCN(c2ccc(OC)cc2)c2nc(Nc3ccc(NC(=O)C4CC4)c(C)c3)ncc21 [compound 330, Cyclopropanecarboxylic acid {4-[5-ethyl-9-(4-methoxy-phenyl)-6-oxo-6,7,8,9-tetrahydro-5H-pyrimido[4,5-b][1,4]diazepin-2-ylamino]-2-methyl-phenyl}-amide]	–
< 100 nM	CCN1C(=O)CCN(c2ccc(C)cc2)c2nc(Nc3ccc4c(c3)CS(=O)(=O)C4)ncc21 [compound 331, 2-(2,2-Dioxo-2,3-dihydro-1H-2lambda*6*- benzo[c]thiophen-5-ylamino)-5-ethyl-9-p-tolyl-5,7,8,9-tetrahydro-pyrimido[4,5-b][1,4]diazepin-6-one]	–
< 100 nM	COc1ccc(N2CCC(=O)N(C)c3cnc(Nc4ccc5c(c4)CS(=O)(=O)C5)nc32)cc1 [compound 332, 2-(2,2-Dioxo-2,3-dihydro-1H-2lambda*6*- benzo[c]thiophen-5-ylamino)-9-(4-methoxy-phenyl)-5-methyl-5,7,8,9-tetrahydro-pyrimido[4,5-b][1,4]diazepin-6-one]	–
< 100 nM	CCN1C(=O)CCN(c2ccc(OC)cc2)c2nc(Nc3ccc4c(c3)CS(=O)(=O)C4)ncc21 [compound 333, 2-(2,2-Dioxo-2,3-dihydro-1H-2lambda*6*- benzo[c]thiophen-5-ylamino)-5-ethyl-9-(4-methoxy-phenyl)-5,7,8,9-tetrahydro-pyrimido[4,5-b][1,4]diazepin-6-one]	–
< 10000 nM	CN1C(=O)CCN(c2ccc(C(C)(C)C)cc2)c2nc(Nc3ccc4c(c3)CS(=O)(=O)C4)ncc21 [compound 334, 9-(4-tert-Butyl-phenyl)-2-(2,2-dioxo-2,3-dihydro-1H-2lambda*6*-benzo[c]thiophen-5-ylamino)-5-methyl-5,7,8,9-tetrahydro-pyrimido[4,5-b][1,4]diazepin-6-one]	–
< 10000 nM	CCN1C(=O)CCN(c2ccc(C(C)(C)C)cc2)c2nc(Nc3ccc4c(c3)CS(=O)(=O)C4)ncc21 [compound 335, 9-(4-tert-Butyl-phenyl)-2-(2,2-dioxo-2,3-dihydro-1H-2lambda*6*-benzo[c]thiophen-5-ylamino)-5-ethyl-5,7,8,9-tetrahydro-pyrimido[4,5-b][1,4]diazepin-6-one]	–
< 100 nM	CN1C(=O)CCN(c2ccc(N3CCOCC3)cc2)c2nc(Nc3ccc4c(c3)CS(=O)(=O)C4)ncc21 [compound 336, 2-(2,2-Dioxo-2,3-dihydro-1H-2lambda*6*- benzo[c]thiophen-5-ylamino)-5-methyl-9-(4-morpholin-4-yl-phenyl)-5,7,8,9-tetrahydro-pyrimido[4,5-b][1,4]diazepin-6-one]	–
< 100 nM	Cc1cc(Nc2ncc3c(n2)N(c2ccc(N4CCOCC4)cc2)CCC(=O)N3C)ccc1NC(=O)C1CC1 [compound 337]	–
< 1000 nM	CCN1C(=O)CCN(c2ccc(N3CCOCC3)cc2)c2nc(Nc3ccc4c(c3)CS(=O)(=O)C4)ncc21 [compound 338, 2-(2,2-Dioxo-2,3-dihydro-1H-2lambda*6*- benzo[c]thiophen-5-ylamino)-5-ethyl-9-(4-morpholin-4-yl-phenyl)-5,7,8,9-tetrahydro-pyrimido[4,5-b][1,4]diazepin-6-one]	–
< 100 nM	CN1C(=O)CCN(c2c(F)cccc2F)c2nc(Nc3ccc4c(c3)CS(=O)(=O)C4)ncc21 [compound 339, 9-(2,6-Difluoro-phenyl)-2-(2,2-dioxo-2,3-dihydro-1H-2lambda*6*-benzo[c]thiophen-5-ylamino)-5-methyl-5,7,8,9-tetrahydro-pyrimido[4,5-b][1,4]diazepin-6-one]	–
< 1000 nM	CCN1C(=O)CCN(c2c(F)cccc2F)c2nc(Nc3ccc4c(c3)CS(=O)(=O)C4)ncc21 [compound 340, 9-(2,6-Difluoro-phenyl)-2-(2,2-dioxo-2,3-dihydro-1H-2lambda*6*-benzo[c]thiophen-5-ylamino)-5-ethyl-5,7,8,9-tetrahydro-pyrimido[4,5-b][1,4]diazepin-6-one]	–
< 10000 nM	Cc1cc(Nc2ncc3c(n2)N(c2ccc(C(C)(C)C)cc2)CCC(=O)N3C)ccc1NC(=O)C1CC1 [compound 342]	–
< 1000 nM	COc1ccc(N2CCC(=O)N(C)c3cnc(Nc4ccc(S(=O)(=O)NC(C)=O)cc4)nc32)cc1 [compound 350, N-Acetyl-4-[9-(4-methoxy-phenyl)-5-methyl-6-oxo-6,7,8,9-tetrahydro-5H-pyrimido[4,5-b][1,4]diazepin-2-ylamino]-benzenesulfonamide]	–
< 100 nM	CC(=O)NS(=O)(=O)c1ccc(Nc2ncc3c(n2)N(c2c(F)cccc2F)CCC(=O)N3C)cc1 [compound 351, N-Acetyl-4-[9-(2,6-difluoro-phenyl)-5-methyl-6-oxo-6,7,8,9-tetrahydro-5H-pyrimido[4,5-b][1,4]diazepin-2-ylamino]-benzenesulfonamide]	–
< 1000 nM	CC(=O)NS(=O)(=O)c1ccc(Nc2ncc3c(n2)N(c2ccc(N4CCOCC4)cc2)CCC(=O)N3C)cc1 [compound 352]	–
